Measured values reported in US8703451B2, “Method for the production of free carboxylic acids” (priority 2008, dated 2014).

Columns and labels:
[1] = tested on: Ralstonia eutropha PHB-4 (reclassified as Cupriavidus necator, DSMZ 541); assay type: cell-based; details: 1, 5 and 10% (w/v) TOA; shake flasks, 24 h, 30° C., 140 rpm
Method: 2-Hydroxyisobutyric-acid-producing Ralstonia eutropha PHB-4 (reclassified as Cupriavidus necator, DSMZ 541), which have been transformed with the plasmid pBBR1MCS-2::icmA-icmB, SEQ ID No. 1, were grown as two 50 ml cultures in a shaking incubator under standard conditions (30° C., 140 rpm, 20 h) in LB medium.
From this, for the biomass production, 5×10 ml were inoculated over into 40 ml of modified mineral salt medium (in accordance with Schlegel et al., 1961) and incubated for 10 h under standard conditions
The biomass cultures were centrifuged off and resuspended in 10 ml of modified mineral salt medium.
Using the resuspensions, 5 flasks of a Ramos shaking incubator (Respiration Activity Monitoring System) were inoculated. The flasks were filled with modified mineral salt medium (addition of 1 g/l of yeast extract and 15 g/l of fructose) with vitamin B12 (60 mg/l). 3 flasks additionally comprised 1, 5 and 10% (w/v) of trioctylamine (TOA).
The flasks were incubated for 24 h under standard conditions (30° C., 140 rpm).
After 0, 15 and 24 hours, samples were taken and CFU (OD), pH, and 2HIB concentration in the broth were determined.
For the CFU determination, dilution series of the broths were prepared. The dilutions were plated out onto LB agar plates with 300 mg/l of Kanamycin and incubated for 24 h at 30° C. A 4-fold determination of the dilutions 10^−8 and 10^−9 was carried out.

[2] = tested on: Ralstonia eutropha PHB-4 (reclassified as Cupriavidus necator, DSMZ 541); assay type: cell-based; details: 0.5%, 1%, 5% and 10% (w/v) TOA; over a period of 20 hours (fermentation time 46-65 hours)
Method: Biocompatibility of TOA (trioctylamine) with Ralstonia eutropha Cultures of Ralstonia eutropha PHB-4 (reclassified as Cupriavidus necator, DSMZ 541) transformed with the plasmid: pBBR1MCS-2::icmA-icmB with SEQ ID No. 1 were fermented on a 400 ml scale in a standard medium for 46 hours to an OD (optical density at 600 nm) of ca. 30, which corresponds to a CFU (colony formed units) of 1×10^11 per ml, under standard conditions (30° C.; pH 6.8; rpm 250-750; pO2 20%).
After a fermentation time of 48 hours, 0.5%, 1%, 5% and 10% (w/v) trioctylamine (TOA) were added under sterile conditions. After a further 6 and 20 hours the CFU were determined.
To ascertain the CFU, dilution series of the broths were prepared. The dilutions were plated out onto agar plates and incubated for 24 hours at 30° C.
The values are summarized in the table below, the CFU values are standardized to 1 ml of fermentation broth.

**Q.** For CCCCCCCCN(CCCCCCCC)CCCCCCCC [TOA, trioctylamine], which “Influence on cell growth (CFU, FIG. 1)” value [1] is on record?
**A.** not influenced

**Q.** And the “Change of CFU in the presence of TOA” value [2]?
**A.** increased further
